Values joined by “and” are separate entries in the source; they are usually repeats but may differ in a detail not shown here. Equal values may be shown once.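 Compound exposure: 48 hours, 5 concentrations, 96-well plates. GI50: concentration for 50% inhibition of growth. TGI: total growth inhibition.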
What follows are molecules tested on NCI-H522 lung (assay: NCI-60 cell line screen, 48 h).

Compound | GI50 [µM] | TGI [µM]
Cc1c(C2Nc3ccccc3C2C)[nH]c2ccccc12 (stereo not drawn) | 10.8 | 26.5
O=C(CCC(=O)Nc1cccc(Cl)c1)CC(=O)c1ccc(Cl)cc1 | – | > 100
O=C(CCCN1CC=C(n2c(=O)[nH]c3ccccc32)CC1)c1ccc(F)cc1 | 65.1 | > 100
CC(=O)Oc1ccccc1C(=O)N=C1[Se]CCCN1C(=O)c1ccccc1OC(C)=O | 1.59 | 3.42
COc1ccc(C2C(C#N)=C(N)OC3=C2COc2ccc(F)cc23)cc1OC (stereo not drawn) | 54.3 | > 100
CCCS(=O)(=O)Nc1ccc(Nc2c3ccccc3nc3ccccc23)c(OC)c1 | – | 5.33
CCN(CC)CC(C)(C)C(=O)/C=C/c1ccc(Cl)c(Cl)c1 | 1.71 | 3.2
CN(C)Cc1c[nH]c2c1C(=O)c1c(c(O)c3ccccc3c1O)C2=O | 12.6 | 35.4
O=C(CSc1nnc(-c2ccccc2NC(=O)C(F)(F)F)c(=O)[nH]1)NC(=O)Nc1ccccc1 | – | > 100
O=C1c2ccn(CCCCNC(CO)(CO)CO)c2C(=O)c2c1c(O)c1ccccc1c2O | 4.38 | > 100
CCOC(=O)c1[nH]c(COC(C)=O)c(CCCOC(C)=O)c1CCCOC(C)=O | – | 52.5
COc1ccc(-c2cc(-c3cccn3C)c(C#N)c(N)n2)cc1OC | 40.4 | > 100

What follows are molecules tested on RPMI-8226 leukemia (assay: NCI-60 cell line screen, 48 h).

Compound | TGI [µM] | GI50
COc1ccccc1/C=C/c1cnccn1 | > 10 | –
Nc1nc(Nc2ccccc2)c2ncn(Cc3cc4c(cc3Br)OCO4)c2n1 | > 52.7 | 0.0497 µM
O=C(Nc1cccc(Cl)c1)c1cc2ccccc2cc1O | – | 1.52 µM and 0.535 µM
Nc1c(C(=O)N/N=C/c2ccc(-c3ccc(Cl)cc3)o2)cnn1-c1ccnc2c(C(F)(F)F)cccc12 | > 100 | 0.496 µM
CCCCCc1c(C)[nH]c(/C=C2\N=C(c3ccc[nH]3)C=C2CC)c1C | 0.0962 | < 0.01 µM
CC(=O)Oc1ccccc1C(=O)N=C1[Se]CCN1C(=O)c1ccccc1OC(C)=O | 8.46 | 2.94 µM
CC(C)c1ccccc1S(=O)c1ccccc1C(C)(C)O (stereo not drawn) | > 100 | –
CC(C)(C)C(=O)/C=C/c1ccc(Oc2ccccc2)cc1 | 29.3 | –
COC(COC(=O)N1CCN(C=O)CC1)C1=C(N2CC2)C(=O)C(C)=C(N2CC2)C1=O (stereo not drawn) | 1.52 | –
O=C(/C=C/c1c(O)ccc2ccccc12)c1ccc2ccccc2c1 | > 100 | –
N#CC(C#N)=c1[nH]c2cccc3c2-c2c(cccc2c3=C(C#N)C#N)[nH]1 | > 100 | –
CSC1(CC(=O)N(C)C)C(=O)Nc2ccccc21 (stereo not drawn) | > 100 | –
CC(=O)OCC1OC([S-])C(OC(C)=O)C(OC(C)=O)C1OC(C)=O.CC[PH+](CC)CC.CC[PH+](CC)CC.[Au].[Au] (stereo not drawn) | 0.761 | 0.138 µM
Cc1cc(C)n(CCNCCn2nc(C)cc2C)n1 | > 100 | –
O=C(CN1CCCCC1)N1CCc2c([nH]c3ccccc23)C1c1cccnc1 (stereo not drawn) | > 100 | –
O/N=C\c1c(O)ccc2ccccc12 | > 100 | –
COc1cc2cn3c4ccc(O)cc4[nH]c(=O)c3c2cc1OC | 10.4 | 1.25 µM
Cc1n(Cc2ccc3ccccc3c2)cc[n+]1Cc1ccc2ccccc2c1 | 1.89 | 0.405 µM
Cc1c(C2Nc3ccccc3C2C)[nH]c2ccccc12 (stereo not drawn) | 52.3 | 5.29 µM
O=C(CCC(=O)Nc1cccc(Cl)c1)CC(=O)c1ccc(Cl)cc1 | > 100 | –
O=C(CCCN1CC=C(n2c(=O)[nH]c3ccccc32)CC1)c1ccc(F)cc1 | > 100 | 30.4 µM
CC(=O)Oc1ccccc1C(=O)N=C1[Se]CCCN1C(=O)c1ccccc1OC(C)=O | 6.13 | 2.42 µM
COc1ccc(C2C(C#N)=C(N)OC3=C2COc2ccc(F)cc23)cc1OC (stereo not drawn) | 52.6 | 15.8 µM
CCN(CC)CC(C)(C)C(=O)/C=C/c1ccc(Cl)c(Cl)c1 | 5.47 | 1.96 µM
CN(C)Cc1c[nH]c2c1C(=O)c1c(c(O)c3ccccc3c1O)C2=O | 22.2 | 4.16 µM

— PubChem BioAssay (NCI)
